From patent publication US20210205225A1, “BIOAVAILABLE ORAL DOSAGE FORMS” (PTC Therapeutics, Inc., priority 2018, published 2021) come the findings set out here.

The nature of data set [1]: Clinical BA/BE and food effect study, PVP SDI Formulation tablets vs Lipid Formulation capsules, PK. In kind it is in vivo, human. Here is the method:
The PVP SDI Formulation tablets prepared in Example 13 were compared to the Lipid Formulation capsules prepared in Example 7 in a clinical BA/BE (bioequivalence/bioavailability) study that evaluated the effect of food on the bioavailability of the PVP SDI Formulation tablets.
(§1) Compound 1 was administered as a single-dose in Lipid Formulation capsules or as PVP SDI Formulation tablets. The primary objective of the study was to determine the comparative single-dose PK and safety profiles of Compound 1 administered in the 2 formulations. The study was also aimed to study of the food effect on the PK and safety profiles for the PVP SDI Formulation tablet.
(§2) Subjects in the study were enrolled in 3 stages. In Stage 1, 24 subjects were randomly accrued into 3 cohorts of 8 subjects receiving Compound 1 in both the Lipid Formulation capsule and the PVP SDI Formulation tablet at dose levels of 0.5 mg/kg, 1 mg/kg, and 2 mg/kg. In Stage 2, 24 subjects were accrued in 3 cohorts of 8 subjects with each cohort receiving a sequentially higher doses of Compound 1 in the PVP SDI Formulation tablet at dose levels of 400, 800, and 1600 mg. An additional 12 subjects (6 males and 6 females) were enrolled in Stage 3 to evaluate the effect of food on the PK of Compound 1 when administered at 400 mg and 1000 mg in the PVP SDI Formulation tablet.
(§3) During the study, data regarding adverse events, vital signs, blood counts, coagulation assessments, blood chemistry determinations, urinalyses, and ECGs were collected at baseline and repeatedly over 72 hours after administration of the study medication, and again at a follow-up visit 7 days after the last study treatment. Blood samples for assessment of plasma Compound 1 concentrations were collected at multiple timepoints. Compound 1 concentrations were analyzed using LC-MS/MS, validated for human plasma.

The nature of data set [2]: Clinical BA/BE and food effect study, safety. In kind it is in vivo, human. Here is the method: as §1, §2, §3
The nature of data set [3]: Phase 1 single-dose lipid capsule PK and food effect study. In kind it is in vivo, human.
Description: (§4) Compound 1 has been evaluated in a Phase 1, randomized, placebo-controlled, escalating, single-dose, safety, tolerability, PK, and food effect study in healthy adult volunteers. Compound 1 was provided in lipid-filled gelatin capsules. The primary objective of the study was to determine a dose range for Compound 1 that safely achieved pharmacologically active target plasma concentrations (as determined from xenograft studies) and that was appropriate for use in a subsequent multiple-dose study.
(§5) Subjects in the study were enrolled in 2 stages. In Stage 1, 40 subjects were accrued in 5 cohorts of 8 subjects with each cohort receiving a sequentially higher single dose of Compound 1 at dose levels of 0.03, 0.1, 0.3, 1, and 3 mg/kg. Within a cohort, 6 subjects (3 males and 3 females) received Compound 1 and 2 subjects (1 male and 1 female) received placebo. An additional 12 subjects (6 males and 6 females) were enrolled in Stage 2 to evaluate the effect of food on the PK of Compound 1.
as §3, with “During both Stages 1 and 2 of” for “During”, “In both Stages 1 and 2, blood” for “Blood”, “plasma. Blood for measurement of plasma DHODH levels are collected at multiple time points. Plasma DHODH concentrations are analyzed using a clinically validated ELISA (R&D Systems). Similarly, blood for measurement of plasma VEGF-A levels was collected at multiple time points. Plasma VEGF-A concentrations were analyzed using a clinically validated ELISA (R&D Systems).” for “plasma.”

A short description of data set [4]: Phase 1 single-dose lipid capsule study, safety and tolerability. Type of data set: in vivo, human.
Description: as §4, §5
as §3, with “During both Stages 1 and 2 of” for “During”, “In both Stages 1 and 2, blood” for “Blood”, “plasma. Blood for measurement of plasma DHODH levels are collected at multiple time points. Plasma DHODH concentrations are analyzed using a clinically validated ELISA (R&D Systems). Similarly, blood for measurement of plasma VEGF-A levels was collected at multiple time points. Plasma VEGF-A concentrations were analyzed using a clinically validated ELISA (R&D Systems).” for “plasma.”

The nature of data set [5]: Solubility of the SDI and a surfactant (5% w/w) in aqueous solution, saturated, RT. In kind it is physicochemical. Here is the method: Aqueous suspensions (5% w/w) of the crystalline Compound 1b and the amorphous SDI were prepared in saturated solutions with surfactants selected from SDS, Poloxamer 188, Poloxamer 407, Gelucire 44/14 and Gelucire 50/13.
The solution was not sufficiently translucent to determine when sufficient material was added to provide the saturated solution. As a result, the solution was allowed to stand so that the excess Gelucire settled, and the supernatant was recovered and used for the solubility study. The exact concentration of Gelucire 50/13 in the solution was unknown.

The mark [6] stands for this setting: solid formulation, higher doses.
Where [7] appears, read: saturated in 5% w/w Gelucire 44/14 aqueous solution, 0 hrs.
[8] abbreviates: saturated in 5% w/w Gelucire 44/14 aqueous solution, 24 hrs.
Where [9] appears, read: saturated in 5% w/w Poloxamer 188 aqueous solution, 0 hrs.
[10] abbreviates: saturated in 5% w/w SDS aqueous solution, 0 hrs.
[11] abbreviates: saturated in 5% w/w SDS aqueous solution, 24 hrs.
Setting [12] is: saturated in Gelucire 50/13 supernatant solution, 0 hrs.
The mark [13] stands for this setting: saturated in Gelucire 50/13 supernatant solution, 24 hrs.

In brackets after ≈: the same amount, converted by molar mass.

Take `COc1ccc([C@H]2c3[nH]c4ccc(Cl)cc4c3CCN2C(=O)Oc2ccc(Cl)cc2)cc1` [Compound 1, 4-chlorophenyl (S)-6-chloro-1-(4-methoxyphenyl)-1,3,4,9-tetrahydro-2H-pyrido[3,4-b]indole-2-carboxylate]: the “mean Cmax after a high-fat, high-calorie meal” value is “increased” in data set [1] (PVP SDI Formulation tablet, fed vs fasted) and “increased” in data set [3] (lipid capsules, fed vs fasted). The “increase of mean Cmax and AUC by high-fat, high-calorie meal” value in data set [1] (Stage 3, 400 mg or 1000 mg, PVP SDI Formulation tablet) was “about 100%”. Further, the half-life in data set [1] (human, plasma, oral, PVP SDI Formulation tablet, Stage 2) was in the range of 38 to 65 h; in data set [3] (both sexes, human, plasma, oral, lipid capsules, single dose, read-out: terminal half-life (t1/2β)) it was 28 to 56 h. In addition, the Tmax in data set [1] (human, plasma, oral, single dose) was in the range of 3 to 7 h; in data set [3] (both sexes, human, plasma, oral, lipid capsules, single dose), 3 to 6 h. For the same molecule, the “concentrations still evident in plasma” value in data set [1] (setting [6]) is no less than 168 h. For the same molecule, the “lag time to appearance in plasma” value is “about 30 minutes” in data set [1] (setting [6]) and “about 30 minutes” in data set [3] (lipid-filled gelatin capsules, single dose). Moreover, the “persistence of concentrations in plasma” value in data set [1] (setting [6]) was no less than 72 h; in data set [3] (lipid capsules, doses 0.30 mg/kg) it was no less than 72 h. For the same molecule, the “laboratory abnormality in 1 subject” value in data set [2] (Stage 1, 2 mg/kg in the Lipid Capsule Formulation, considered unlikely to be drug related) is given as “Grade 3 elevation of serum creatine kinase”. Besides, the “physical examinations, vital sign measurements, ECGs” value in data set [2] (all 3 stages) and in data set [4] (both stages) was “no safety concerns” in each case. Also, the “deaths or serious adverse events” value is “No deaths or serious adverse events” in data set [2] (human, in vivo) and “No deaths or serious adverse events” in data set [4] (in vivo). In addition, the tolerability result was “generally well tolerated” in data set [2] (single dose, lipid capsules or PVP SDI tablets) and “generally well tolerated” in data set [4] (single dose, lipid capsules). In addition, the “increases in mean Cmax values with dose” value in data set [3] (Stage 1, 0.03-3 mg/kg) is given as “generally dose proportional”. For the same molecule, the “increase of mean Cmax by high-fat, high-calorie meal” value in data set [3] (Stage 2, 1 mg/kg) is recorded as “about 40%”. For the same molecule, the “low concentrations still evident in plasma” value in data set [3] (lipid capsules, 3.0-mg/kg dose) is no less than 168 h. For the same molecule, in data set [4] (Stage 1), the “treatment-emergent adverse event: nausea, subjects receiving Compound 1” value came to 4 subjects. Also, the “treatment-emergent adverse event: headache” value in data set [4] (Stage 1, 40 subjects dosed) stood at 9 episodes in 8 subjects. In addition, the “adverse event: back pain” value in data set [4] (Stage 2) was found to be 2 episodes in 2 subjects. For the same molecule, in data set [4] (Stage 2), the “adverse event: headaches” value is on record as 3 episodes in 3 subjects. Also, the “severity of adverse events” value in data set [4] (all except 1 case of Grade 2 diarrhea at 1 mg/kg fasted, Stage 2) is “Grade 1”. In addition, the “hematology, coagulation, chemistry parameters” value in data set [4] (both stages) is on record as “No clinically significant changes”.
A word on the Solubility: it is the dissolved amount per volume that the medium holds. Lower therefore signals little dissolved substance. Consider `COc1ccc([C@H]2c3[nH]c4ccc(Cl)cc4c3CCN2C(=O)Oc2ccc(Cl)cc2)cc1` [Compound 1b], for which the Solubility amounted to 14.7 µg/mL (≈ 31.5 µM) in data set [5] (setting [7]); 23.6 µg/mL (≈ 50.5 µM) in data set [5] (setting [8]); 0.2 µg/mL (≈ 0.428 µM) in data set [5] (setting [9]); 2.4 µg/mL (≈ 5.14 µM) in data set [5] (setting [10]); 6.2 µg/mL (≈ 13.3 µM) in data set [5] (setting [11]); 7.8 µg/mL (≈ 16.7 µM) in data set [5] (setting [12]). The molecule further came in with a Solubility in data set [5] (setting [13]) of 23.0 µg/mL (≈ 49.2 µM).
Broadly, the solubility is how much of the substance goes into solution per volume. High values mean a readily soluble substance, low ones a poorly soluble substance. `COc1ccc([C@H]2c3[nH]c4ccc(Cl)cc4c3CCN2C(=O)Oc2ccc(Cl)cc2)cc1` [Sample 2] showed a solubility at 24 h in data set [5] (5% w/w Poloxamer 188 aqueous solution, aqueous with cosolvent or surfactant or cyclodextrin, thermodynamic from solid, saturated in 5% w/w Poloxamer 188 aqueous solution, 24 hrs) of 4.3 µg/mL (≈ 9.2 µM). The Solubility amounted to 142.5 µg/mL (≈ 305 µM) in data set [5] (setting [7]); 58.4 µg/mL (≈ 125 µM) in data set [5] (setting [8]); 0.7 µg/mL (≈ 1.5 µM) in data set [5] (setting [9]); 224.7 µg/mL (≈ 481 µM) in data set [5] (setting [10]); 32.4 µg/mL (≈ 69.3 µM) in data set [5] (setting [11]); 677.4 µg/mL (≈ 1450 µM) in data set [5] (setting [12]). In data set [5] (setting [13]), this molecule showed a Solubility of 371.5 µg/mL (≈ 795 µM).
